Molecules are shown by their SMILES.

One experiment has as its system Mus musculus. Briefly: Inhibition of apomorphine-induced climbing in ip dosed Swiss Webster mouse. The class given is functional.
Experiment [1] deals with T1, Alpha-1A adrenergic receptor (Homo sapiens, UniProt P35348).
T1 sequence (P35348 whole entry): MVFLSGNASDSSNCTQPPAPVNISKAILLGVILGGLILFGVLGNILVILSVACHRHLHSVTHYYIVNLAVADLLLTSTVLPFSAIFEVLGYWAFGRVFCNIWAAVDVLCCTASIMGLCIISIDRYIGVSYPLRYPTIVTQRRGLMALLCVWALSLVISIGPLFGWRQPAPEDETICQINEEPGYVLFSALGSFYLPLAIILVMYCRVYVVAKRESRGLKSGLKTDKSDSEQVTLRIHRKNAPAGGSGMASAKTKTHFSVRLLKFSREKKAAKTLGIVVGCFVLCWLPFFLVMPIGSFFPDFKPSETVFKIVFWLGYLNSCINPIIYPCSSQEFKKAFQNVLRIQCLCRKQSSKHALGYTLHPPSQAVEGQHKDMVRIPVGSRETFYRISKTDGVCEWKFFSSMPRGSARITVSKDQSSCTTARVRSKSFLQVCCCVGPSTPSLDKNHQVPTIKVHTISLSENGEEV
Briefly: Binding affinity to human cloned adrenergic alpha-1A receptor by radioligand binding assay.

For experiment [2], the target named is T2, Alpha-2C adrenergic receptor (Homo sapiens, UniProt P18825).
T2 sequence (P18825 whole entry): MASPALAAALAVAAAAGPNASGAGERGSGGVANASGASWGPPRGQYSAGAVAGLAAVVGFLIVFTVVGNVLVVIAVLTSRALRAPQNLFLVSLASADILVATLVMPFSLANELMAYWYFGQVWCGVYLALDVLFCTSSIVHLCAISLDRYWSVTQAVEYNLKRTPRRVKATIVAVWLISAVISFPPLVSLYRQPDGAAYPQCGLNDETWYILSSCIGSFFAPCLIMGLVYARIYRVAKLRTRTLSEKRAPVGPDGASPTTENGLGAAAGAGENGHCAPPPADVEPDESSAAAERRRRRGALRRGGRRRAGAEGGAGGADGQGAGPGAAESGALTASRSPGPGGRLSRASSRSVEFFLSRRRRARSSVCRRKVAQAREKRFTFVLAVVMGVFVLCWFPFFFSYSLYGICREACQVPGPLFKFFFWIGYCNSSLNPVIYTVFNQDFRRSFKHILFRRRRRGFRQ
In words: Binding affinity to human cloned adrenergic alpha-2C receptor by radioligand binding assay.

The target in experiment [3] is T3, Alpha-2A adrenergic receptor (Homo sapiens, UniProt P08913).
T3 sequence (P08913 whole entry): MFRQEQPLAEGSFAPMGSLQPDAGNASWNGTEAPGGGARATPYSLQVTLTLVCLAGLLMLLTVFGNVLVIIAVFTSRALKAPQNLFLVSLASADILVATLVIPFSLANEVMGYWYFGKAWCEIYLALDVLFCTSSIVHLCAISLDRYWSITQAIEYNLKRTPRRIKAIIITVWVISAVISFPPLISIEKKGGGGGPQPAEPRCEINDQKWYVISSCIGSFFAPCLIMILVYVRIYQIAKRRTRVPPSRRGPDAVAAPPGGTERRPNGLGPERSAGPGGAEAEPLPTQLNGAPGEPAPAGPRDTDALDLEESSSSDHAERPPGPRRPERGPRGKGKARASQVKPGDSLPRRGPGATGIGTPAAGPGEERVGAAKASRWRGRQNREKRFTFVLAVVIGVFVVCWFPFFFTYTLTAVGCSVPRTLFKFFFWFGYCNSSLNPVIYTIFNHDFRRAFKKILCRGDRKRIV
Briefly: Binding affinity to human cloned adrenergic alpha-2A receptor by radioligand binding assay.

The target of experiment [4] is T4, Alpha-1B adrenergic receptor (Homo sapiens, UniProt P35368).
T4 sequence (P35368 whole entry): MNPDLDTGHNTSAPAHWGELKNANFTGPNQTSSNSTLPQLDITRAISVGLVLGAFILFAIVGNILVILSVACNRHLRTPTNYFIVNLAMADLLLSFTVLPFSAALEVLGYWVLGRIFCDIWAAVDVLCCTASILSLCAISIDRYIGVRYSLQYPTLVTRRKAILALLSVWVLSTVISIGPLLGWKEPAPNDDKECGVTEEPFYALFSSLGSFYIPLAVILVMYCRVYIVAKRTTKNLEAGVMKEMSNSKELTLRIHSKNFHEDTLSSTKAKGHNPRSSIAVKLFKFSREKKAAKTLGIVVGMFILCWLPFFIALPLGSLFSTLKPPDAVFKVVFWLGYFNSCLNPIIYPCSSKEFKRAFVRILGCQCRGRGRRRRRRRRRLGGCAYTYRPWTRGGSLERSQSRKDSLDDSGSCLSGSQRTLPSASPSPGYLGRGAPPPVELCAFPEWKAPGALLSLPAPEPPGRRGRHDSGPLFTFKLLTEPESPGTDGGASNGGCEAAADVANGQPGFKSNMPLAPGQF
Briefly: Binding affinity to human cloned adrenergic alpha-1B receptor by radioligand binding assay.

The target of experiment [5] is T5, Alpha-2B adrenergic receptor (Homo sapiens, UniProt P18089).
T5 sequence (P18089 whole entry): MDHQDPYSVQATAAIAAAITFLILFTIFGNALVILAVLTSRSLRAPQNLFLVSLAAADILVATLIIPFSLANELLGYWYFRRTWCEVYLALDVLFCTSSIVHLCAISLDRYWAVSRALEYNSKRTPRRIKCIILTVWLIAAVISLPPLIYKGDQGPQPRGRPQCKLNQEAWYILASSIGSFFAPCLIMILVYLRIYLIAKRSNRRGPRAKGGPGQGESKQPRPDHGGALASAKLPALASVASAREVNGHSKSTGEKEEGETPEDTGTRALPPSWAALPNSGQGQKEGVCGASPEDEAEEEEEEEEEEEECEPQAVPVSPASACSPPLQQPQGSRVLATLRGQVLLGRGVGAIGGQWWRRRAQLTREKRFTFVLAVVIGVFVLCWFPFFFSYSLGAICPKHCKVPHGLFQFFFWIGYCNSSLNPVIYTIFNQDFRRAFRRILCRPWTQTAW
Briefly: Binding affinity to human cloned adrenergic alpha-2B receptor by radioligand binding assay.

Experiment [6] has as its target T6, 5-hydroxytryptamine receptor 2C (Homo sapiens, UniProt P28335).
T6 sequence (P28335 whole entry): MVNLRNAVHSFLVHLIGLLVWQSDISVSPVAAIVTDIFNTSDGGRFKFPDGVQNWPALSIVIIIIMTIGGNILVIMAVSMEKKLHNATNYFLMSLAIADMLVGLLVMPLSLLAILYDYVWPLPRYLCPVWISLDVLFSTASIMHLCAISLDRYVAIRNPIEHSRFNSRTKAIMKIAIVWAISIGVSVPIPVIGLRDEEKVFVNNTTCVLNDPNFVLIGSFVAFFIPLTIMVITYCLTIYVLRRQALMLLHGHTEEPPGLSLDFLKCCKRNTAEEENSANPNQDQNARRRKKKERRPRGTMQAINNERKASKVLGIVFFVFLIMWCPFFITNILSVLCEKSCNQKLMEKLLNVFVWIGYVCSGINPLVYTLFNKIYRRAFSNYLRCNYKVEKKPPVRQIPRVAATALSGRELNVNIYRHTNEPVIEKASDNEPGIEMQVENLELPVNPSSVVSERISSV
In words: Binding affinity to human cloned 5HT2C receptor by radioligand binding assay.

In experiment [7] the target is T7, 5-hydroxytryptamine receptor 1A (Homo sapiens, UniProt P08908).
T7 sequence (P08908 whole entry): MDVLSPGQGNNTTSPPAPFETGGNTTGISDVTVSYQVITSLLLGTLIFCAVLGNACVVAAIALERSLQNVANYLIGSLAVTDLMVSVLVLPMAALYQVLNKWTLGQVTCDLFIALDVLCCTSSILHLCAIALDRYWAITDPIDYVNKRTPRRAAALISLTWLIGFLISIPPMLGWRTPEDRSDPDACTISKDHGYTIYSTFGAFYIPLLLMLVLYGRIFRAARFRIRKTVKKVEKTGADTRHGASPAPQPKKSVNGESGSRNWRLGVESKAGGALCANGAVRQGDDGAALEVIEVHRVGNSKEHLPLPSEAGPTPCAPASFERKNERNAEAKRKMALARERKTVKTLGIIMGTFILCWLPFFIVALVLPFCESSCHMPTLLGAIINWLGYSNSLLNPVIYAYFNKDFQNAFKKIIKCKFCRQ
In words: Binding affinity to human cloned 5HT1A receptor by radioligand binding assay.

Consider `CN1CCN(C2=Nc3cc(Cl)ccc3Nc3ccccc32)CC1` [CLOZAPINE], for which the ED50 (in general, the midpoint of the dose-response relation) with Mus musculus came out at 5.54 mg/kg.
For the molecule `O=C(CCCN1C2CCC1CC(O)(c1ccc(Cl)cc1)C2)c1ccc(F)cc1` (stereo unspecified), the Ki (as a rule, the dissociation constant of the complex between target and ligand, obtained from inhibition or displacement) in experiment [1] turned out to be 39.3 nM; in experiment [2] it was 143 nM; in experiment [3], 2830 nM; in experiment [4], 42.7 nM; in experiment [5], 516 nM.
In the case of `O=C(CCCN1CCC(O)(c2ccc(Cl)cc2)C1)c1ccc(F)cc1` (single isomer, unassigned; (+)), the inhibition constant (Ki) came to 115 nM in experiment [1], 3600 nM in experiment [6], 722 nM in experiment [7] and 102 nM in experiment [4]. In addition, the 50% effect level with Mus musculus (ED50) was put at a dose of 1.6 mg/kg.
`O=C(CCCN1CCC(O)(c2ccc(Cl)cc2)CC1)c1ccc(F)cc1` [HALOPERIDOL] had an ED50 with Mus musculus of 0.007 mg/kg.
As for `O=C(CCCN1CCC(O)(c2ccc(Cl)cc2)C1)c1ccc(F)cc1` (stereo in doubt; 2b), the Ki in experiment [1] was 34 nM; in experiment [6], 1250 nM; in experiment [7], 832 nM; in experiment [4] it was 41.7 nM.

Source of the values: ChEMBL document CHEMBL1148503, “Evaluation of the eutomer of 4-{3-(4-chlorophenyl)-3-hydroxypyrrolidin-1-yl}-1-(4-fluorophenyl)butan-1-one, {(+)-SYA 09}, a pyrrolidine analog of haloperidol” (Bioorg Med Chem Lett, 2006).
